Conditions: in chloroform

Brc1sc(Br)c(Br)c1Br
Conditions	solubility (mole fraction)
278.15 K	0.0198
282.15 K	0.0231
286.15 K	0.0265
290.15 K	0.0304
294.15 K	0.0349
298.15 K	0.0401
302.15 K	0.0458
306.15 K	0.0517
310.15 K	0.0588
314.15 K	0.066
318.15 K	0.0745
322.15 K	0.0828

— BigSolDB 2.1
